The structures appear in SMILES notation.

The nature of data set [1]: Storage stability of Tween 80-containing fluorescent-probe solutions of Test Examples 13 to 15 in sealed glass vials (HPLC purity). It counts as physicochemical. Particulars: vial stored at 25°C in the dark for 85 days; converted to 3 years (FIG. 4); DMSO 10-50 v/v % with Tween 80. On the procedure: (§1) HPLC analysis was performed under the following conditions through use of a liquid chromatography system (UltiMate 3000, Thermo Fisher Scientific Inc.), and the ratio of the peak area of HMRef-αMan with respect to the entire peak area was calculated as a purity. • Column: Meteoric core C8, 5 μm, 4.6×150 mm (YMC Co., Ltd.) • Column temperature: 25° C. • Mobile phase A: water/TFA (1,000:1) • Mobile phase B: acetonitrile/TFA (1,000:1) • Liquid-feeding amount: 1.0 mL/min. • Wavelength: 254 nm • Liquid feeding to mobile phase: The liquid was fed under the conditions shown in the following table.
A glass vial was filled with the fluorescent-probe solution obtained in each of Test Examples 13 to 15, and sealed with a rubber stopper. The vial filled with each of the fluorescent-probe solutions was stored at 25° C. in the dark for 85 days, and analysis was performed by liquid chromatography.
In the same manner as in Test Examples 1 to 11, the purity of HMRef-αMan and the content of the oxidized form thereof in each of the fluorescent-probe solutions within 12 hours after preparation, and those in each of the fluorescent-probe solutions after storage for 85 days in the vials were measured, and the reduction amount of the purity and the increase amount of the oxidized form in 3 years were calculated as converted values. […]

Data set [2] is described as follows: Storage stability of fluorescent-probe solutions of Test Examples 1 to 11 in sealed glass vials (HPLC purity). The data set is classed as physicochemical. On the procedure:
A 25 mL glass vial (manufactured by Daiwa Special Glass Co., Ltd.) was filled with 0.125 mL to 0.312 mL of the fluorescent-probe solution obtained in each of Test Examples 1 to 11, and the opening of the glass vial was plugged with a rubber stopper (No. 20-T manufactured by Maruemu Corporation), and then tightly sealed with an aluminum cap over the rubber stopper. The vial filled with each of the fluorescent-probe solutions was stored at 25° C. or 50° C. in the dark for from 25 days to 32 days.
The purity of HMRef-αMan in each of the fluorescent-probe solutions within 12 hours after preparation, and that in each of the fluorescent-probe solutions after storage for from 25 days to 32 days in the vials were measured as described below, and the difference between the purities (the former−the latter) was divided by the number of storage days. Thus, the reduction amount of the purity per day was calculated. In addition, the reduction amount of the purity (converted value) in storage (3 years) at room temperature or in storage (1 year) at 50° C. was calculated from the reduction amount of the purity per day. All the purities of HMRef-αMan within 12 hours after the preparation of the fluorescent-probe solutions obtained in Test Examples 1 to 11 were 99% or more.
as §1, with “table. […]” for “table.”

As to `OC[C@H]1O[C@H](Cc2ccc3c(c2)Oc2cc(NCC(F)(F)F)ccc2C32OCc3ccccc32)[C@@H](O)[C@@H](O)[C@@H]1O` (stereo partly shown) [HMRef-αMan], the “reduction in purity of HMRef-αMan during storage” value in data set [1] is “suppressed even when the content of the organic solvent is reduced by adding the solubilizer”; in data set [2] (vial stored at 25°C or 50°C in the dark for 25 to 32 days, converted to 3 years at room temperature / 1 year at 50°C (FIG. 1, FIG. 2), DMSO/water with or without phosphate), “suppressed by the presence of water in the solvent”. The “main analog observed after storage (mass spectrometry of resolved HPLC peak)” value in data set [2] (after storage for 25 to 32 days in the vials) is given as “an analog (oxidized form) in which two hydrogen atoms were lost from HMRef-αMan was observed as a main analog”. Also, the stability during storage entry in data set [2] (presence of water in the solvent, FIG. 1 and FIG. 2) is on record as “improved”.

The record behind these values is patent US20250283887A1, “FLUORESCENT-PROBE SOLUTION” (GORYO CHEMICAL, INC., priority 2022, published 2025).
